Assay results as given in patent publication US20140364460A1, “USE OF FATOSTATIN FOR TREATING CANCER HAVING A p53 MUTATION” (THE TRUSTEES OF COLUMBIA UNIVERSITY IN THE CITY OF NEW YORK, priority 2012, published 2014).

Legend:
[1] = mice, after administration of 23 mg/kg; cited from earlier work
[2] = tested on: mutant p53 binding to the HMG-CoA reductase gene promoter; test: Quantitative ChIP of mutant p53 in fatostatin-treated MDA-468.shp53 cells; type: cell-based; details: fatostatin 20 μM, six independent experiments, p<0.01
Procedure: FIG. 1. MDA-468.shp53 cells were treated with fatostatin (20 μM) and subjected to ChIP analysis. Data are presented as mean+−SD of six independent experiments. **p<0.01
Chromatin Immunoprecipitation (ChIP) experiments were carried out as described in Beckerman et al., 2009. Briefly, MDA-468 cells were treated with 1% formaldehyde prior to lysis in RIPA Buffer and sonication to yield 500 bp fragments. Protein A/G Sepharose beads were conjugated to anti-p53 antibodies (1801/D0-1) which were subsequently used to immunoprecipitate p53 from 1 mg whole cell lysate. Quantitative ChIP was carried out on an ABI StepOne Plus using SYBR green dye. Genomic Locations of SRE-1 sites within the promoters of sterol biosynthesis genes were located using a literature search: HMGCS 1 (Inoue et al., 1998), HMGCR (Boone et al., 2009), MVK (Bishop et al., 1998), FDPS (Ishimoto et al., 2010), FDFT1 (Inoue et al., 1998), SQLE (Nagai et al., 2002) and CYP51A1 (Halder et al., 2002), respectively. ChIP primer sequences are provided in Table 2 of PCT/US 11/55488 and are incorporated by reference.
MDA-468.shp53 cells were treated with Fatostatin (20 μM) and subjected to ChIP analysis. FIG. 1. Cells in 3D culture were treated on Day 1 or Day 4 of the 3D protocol and refed every 4 days with fresh drug. Data are presented as mean+−SD of six independent experiments. **p<0.01.

MDA-231 cells = test: Three-dimensional culture of MDA-231.shp53 cells; type: cell-based; details: 3D culture 8 days, fatostatin 2 or 20 μM added day 1
Procedure: FIG. 2. MDA-231.shp53 cells were grown in 3D cultures for 8 days and treated with (A) DMSO, (B) Fatostatin 2 μM or (C) Fatostatin 20 μM. Drugs were added on day 1. Representative DIC images are shown. Scale bar, 200 μm.
(§1) Three-dimensional culture was carried out as described in Debnath et al., 2003. Briefly, 8-well chamber slides were lined with 50 μl growth factor reduced Matrigel (BD Biosciences). Cells were then seeded at a density of 5,000 cells/well in Assay Medium (DMEM/F12+2% Horse Serum+10 μg/ml Insulin+0.5 μg/ml Hydrocortisone) containing 2% Matrigel. Cells were refed with Assay Medium containing 2% Matrigel every 4 days. For RNA/protein analysis from 3D cultures, 35 mm plates were lined with 500 μl Matrigel and cells were seeded at a density of 225,000 cells/plate in Assay Medium+2% Matrigel. Cells were harvested using Cell Recovery Solution (BD Biosciences) according to the manufacturer's instructions.
MDA-231.shp53 cells were grown in 3D cultures for 8 days and treated with DMSO and fatostatin (2 or 20 μM). Drugs were added on day 1. Representative DIC images are shown. FIG. 2. Scale bar, […].

SKBR3 cells = test: Three-dimensional culture of SKBR3 cells; type: cell-based; details: 3D culture 8 days, fatostatin 2 or 20 μM added Day 1
Procedure: FIG. 3. Fatostatin inhibits SKBR3 cell growth in 3D Culture. SKBR3 cells were grown in 3D cultures for 8 days treated with (A) DMSO, (B) Fatostatin 2 μM or (C) Fatostatin 20 μM. Drugs were added on Day 1. Representative Differential Interference Contrast (DIC) images are shown. Scale bar, 200 μm.
as §1
SKBR3 cells were grown in 3D cultures for 8 days treated with DMSO, Fatostatin (2 μM) or (20 μM). Drugs were added on Day 1.

MDA-468 cells = test: Three-dimensional culture of MDA-468.shp53 cells; type: cell-based; details: 3D culture 10 days, fatostatin 2 or 20 μM added Day 1
Procedure: FIG. 4. Fatostatin inhibits MDA-468 cell growth in 3D Culture. MDA-468.shp53 cells were grown in 3D cultures for 10 days treated with (A) DMSO, (B) Fatostatin 2 μM or (C) Fatostatin 20 μM. Drugs were added on Day 1. Representative Differential Interference Contrast (DIC) images are shown. Scale bar, 200 μm.
as §1
MDA-468.shp53 cells were grown in 3D cultures for 10 days treated with DMSO, Fatostatin (2 μM) or (20 μM). Drugs were added on Day 1.

| Structure (SMILES) | oral availability [1] | level of mutant p53 binding to the HMG-CoA reductase gene promoter [2] | cell growth in 3D culture (MDA-231 cells) | normalizing the abnormal 3D morphology (MDA-231 cells) | cell growth in 3D culture (SKBR3 cells) | normalizing the abnormal 3D morphology (SKBR3 cells) | cell growth in 3D culture (MDA-468 cells) | normalizing the abnormal 3D morphology (MDA-468 cells) |
| --- | --- | --- | --- | --- | --- | --- | --- | --- |
| CCCc1cc(-c2nc(-c3ccc(NS(C)(=O)=O)cc3)cs2)ccn1 [N-(4-(2-(2-Propylpyridin-4-yl)thiazol-4-yl)phenyl)methanesulfonamide] | demonstrated | – | – | – | – | – | – | – |
| CCCc1cc(-c2nc(-c3ccc(C)cc3)cs2)ccn1 [fatostatin, 2-Propyl-4-(4-(p-tolyl)thiazol-2-yl) pyridine] | – | significantly reduced | inhibited | dramatic effect on normalizing the abnormal 3D morphology | inhibited | dramatic effect on normalizing the abnormal 3D morphology | inhibited | dramatic effect on normalizing the abnormal 3D morphology |
